From patent US7718578B2, “Method of synthesis and testing of combinatorial libraries using microcapsules” (Medical Research Council, priority 2003, dated 2010) come the findings set out here.

A short description of series [1]: Compartmentalisation of small molecules in water-in-fluorocarbon emulsions (epifluorescence microscopy). Particulars: water-in-perfluorooctyl bromide emulsions mixed by vortexing, 24 hours after mixing. The series is classed as physicochemical. The method, then: Water-in-fluorocarbon emulsions containing 95% (v/v) perfluorooctyl bromide, 5% (v/v) phosphate buffered saline containing the molecule of interest in solution, and 2% (w/v) C8F17C11H22OP(O)[N(CH2CH2)2O]2 (F8H11DMP) as surfactant were formed essentially as (Sadtler et al., 1996) by extrusion (15 times) through 14 μm filters (Osmonics) or by homogenising for 5 min at 25,000 r.p.m. using an Ultra-Turrax T8 Homogenizer (IKA) with a 5 mm dispersing tool. Emulsions were made containing a series of small fluorescent molecules dissolved in the aqueous phase at concentrations from […] to 2 mM. These molecules, including calcein, texas red, fluorescein, coumarin 102, 7-hydroxycoumarin-3-carboxylic acid and 7-diethylamino-4-methyl coumarin (coumarin 1), had molecular weights from 203 to 625 Da and Log P values—calculated using SRC's LogKow/KowWin Program (Meylan and Howard, 1995)—ranging from −0.49 to 4.09. Emulsions containing different coloured fluorochromes were mixed by vortexing. Compartmentalisation was observed by epifluorescence microscopy of the mixed emulsions. No exchange between compartments was observed 24 hours after mixing (see FIG. 5).

The target of series [2] is T1, human recombinant PTP1B, residues 1-322 (Homo sapiens, UniProt P18031).
T1 construct: human recombinant PTP1B, residues 1-322; Biomol Research Laboratories, Inc; purchased Biomol Research Laboratories, Inc
T1 sequence (P18031 1-322): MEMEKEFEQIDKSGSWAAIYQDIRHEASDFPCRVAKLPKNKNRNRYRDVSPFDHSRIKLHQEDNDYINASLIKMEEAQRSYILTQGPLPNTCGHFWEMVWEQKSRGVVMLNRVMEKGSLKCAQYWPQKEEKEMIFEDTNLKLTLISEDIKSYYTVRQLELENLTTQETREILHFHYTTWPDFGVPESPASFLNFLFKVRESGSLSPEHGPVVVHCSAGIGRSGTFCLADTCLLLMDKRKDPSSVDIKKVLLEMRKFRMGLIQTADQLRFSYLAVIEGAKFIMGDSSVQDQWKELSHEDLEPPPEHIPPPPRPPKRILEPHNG
The series is described as follows: Screening for PTP1B inhibition using microcapsules in microfluidic systems (DiFMUP, epifluorescence microscope). The series is classed as biochemical. Particulars: Example 5: 100 μM compound solution, PTP1B 50 mU/ml, microfluidic droplets in PFD carrier fluid. On the procedure:
Microchannels are fabricated with rectangular cross-sections using rapid prototyping in poly(dimethylsiloxane) (PDMS) (McDonald and Whitesides, 2002) and rendered hydrophobic as (Song and Ismagilov, 2003). Syringe pumps were used to drive flows (Harvard Apparatus PHD 2000 Infusion pumps). For aqueous solutions, 50 μl Hamilton Gastight syringes (1700 series, TLL) with removeable needles of 27-gaugeare used with 30-gauge Teflon tubing (Weico Wire and Cable). For the carrier fluid, 1 ml Hamilton Gastight syringes (1700 series, TLL) are used with 30-gauge Teflon needles with one hub from Hamilton (Song and Ismagilov, 2003). The carrier fluid is 9% (v/v) C6F11C2H4OH in perfluorodecaline (PFD) (Song et al., 2003). All water-soluble reagents were dissolved in (25 mM HEPES, pH 7.4, 125 mM NaCl, 1 mM EDTA), a buffer compatible with PTP1B activity.
These three steams are continuously injected into a flow of water immiscible fluorocarbon carrier fluid (9% (v/v) C6F11C2H4OH in PFD). Inlet channels for the aqeous solutions are […] wide and channel for PFD is 28 μm wide. […]
The channel immediately downstream of the point of droplet formation is winding with a peak to peak distance of 50 μm for a distance of 1 mm. […] Fluorescence of the microcapsules due to production of DiFMU (excitation/emmission maxima 358/452 nm; blue fluorescence) is measured using an epifluorescence microscope. […]

Series [3] has as its target T1, human recombinant PTP1B, residues 1-322. Kind of series: Screening for PTP1B inhibitors in water-in-oil emulsion microcapsules with fluorogenic substrate DiFMUP, multi-colour flow cytometry. Type of series: biochemical. The note with it: PTP1B 5 mU/ml, 37° C. for 30 min. The method, then: A solution of 1% (w/v) Span 60 and 1% (w/v) cholesterol in decane (all from Sigma Aldrich) is prepared by dissolving 80 mg of Span 60 and 80 mg of cholesterol into 7.84 ml of decane. The decane is heated to 45° C. to allow complete solubilization of the surfactant and cholesterol. The surfactant/decane solution is divided over batches of 200 μl and placed in a block-heater at 37° C.
A hand-extruding device (Mini extruder, Avanti Polar Lipids Inc, Alabaster, Ala., USA) is assembled according to the manufacturer's instructions. For extrusion, a single 19 mm Track-Etch polycarbonate filter with average pore size of 14 μm (Whatman Nuclepore, Whatman, Maidstone, UK) is fitted inside the mini extruder. Two gas-tight 1 ml Hamilton syringes (Gastight #1001, Hamilton Co, Reno, Nev., USA) are used for extrusion. […]
The two emulsions are mixed by vortexing in ratios varying from 1:1000 to 1:1 (compound 2 emulsion: hydrocinnamic acid emulsion) and incubated at 37° C. for 30 min. Inhibitors reduce the amount of non-fluorescent substrate (DiFMUP) converted to the dephosphorylated product (DiFMU; excitation/emmission maxima 358/452 nm; blue fluorescence). […]
The double emulsions are then analysed by multi-colour flow cytometery using a MoFlo (Cytomation) flow cytometer. […]
(In general: In flow cytometry, cells or beads pass a laser one at a time.)

Turning to `O=C(O)CN(CC(=O)O)Cc1cc2c(cc1O)Oc1cc(O)c(CN(CC(=O)O)CC(=O)O)cc1C21OC(=O)c2ccccc21` [calcein], in series [1], the “exchange between microdroplets / compartments” value is on record as “No exchange”. As for `O=C(O)CCc1ccccc1` [hydrocinnamic acid], the “fluorescence of microcapsules due to production of DiFMU” value in series [2] is “exhibiting blue fluorescence”. In addition, the “blue fluorescence of microcapsules (dephosphorylation of DiFMUP by PTP1B)” value in series [3] (Example 1: 100 μM compound, two emulsions mixed by vortexing) is “blue fluorescence due to dephosphorylation of DiFMUP by PTP1B”; in series [3] (Example 2: 100 μM compound, mixtures added sequentially while homogenising) it was “blue fluorescence due to dephosphorylation of DiFMUP by PTP1B”.

Regarding texas-red, the “exchange between microdroplets / compartments” value in series [1] is “No exchange”.
